Experimental data from patent US20210177722A1, “Phytic Acid Ester Derivative” (NATIONAL UNIVERSITY CORPORATION KUMAMOTO UNIVERSITY, priority 2018, published 2021).

Columns and labels:
[1] = tested on: HeLa cell; test: Quantitative determination of IP6 in cell (LC/MS of IP6 methyl ester); format: cell-based; conditions: HeLa cells, 10 μM, 30 minutes
Description: In this example, incorporation of Pro-IP6 into a HeLa cell was quantitatively determined.
HeLa cells (5×10^5 cells/well, culture fluid: 1 mL) were seeded in a 3.5 cm dish to be cultured for 24 hours. Thereafter, DMSO (1%, Fujifilm Wako Pure Chemical Corporation), an aqueous solution (1%) of IP6 (final concentration: 10 μM, Sigma Aldrich), or a DMSO solution (1%) of Pro-IP6 (final concentration: 10 μM) synthesized in Example 1 was added thereto, and the resultant was cultured for another 30 minutes. HeLa cells were cultured with neither IP6 nor Pro-IP6 added, followed by adding the same amount of DMSO thereto, and the resultant was used as a negative control.
Thereafter, the resultant was washed with 1× PBS (−) once, and the resultant cells were scraped with a cell scraper, transferred to a 1.5 mL tube, and washed with 1× PBS (−) three times. To the thus obtained precipitate, 350 μl of MeOH (Fujifilm Wako Pure Chemical Corporation) and 1% NP-40 (Nacalai Tesque, Inc.) were added, followed by sonication (10 minutes). After equilibrating a column (Oasis WAX 1cc, Waters) with MeOH (1 mL) and H2O (1 mL), a disrupted cell extract was added thereto. Thereafter, the column was washed with 50% MeOH (1 mL), and eluted with 50% MeOH (200 μL×2) containing 2 mol/L of HCl (Fujifilm Wako Pure Chemical Corporation). The thus obtained eluate was concentrated, and dissolved in MeOH (50 μL), and trimethylsilyldiazomethane (200 μl, Tokyo Chemical Industry Co., Ltd.) was added thereto, followed by stirring at 50° C. for 1 hour under argon atmosphere. The reaction was stopped by adding H2O (100 μL). Through a reaction of trimethylsilyidiazomethane with IP6, IP6 methyl ester is obtained.
The thus obtained sample (IP6 methyl ester) was measured by LC/MS [column: MastroC18 2.1 mm×100 mm, […] (Shimadzu GLC Ltd.), mobile phase: 0.1% formic acid solution (Fujifilm Wako Pure Chemical Corporation), acetonitrile (Fujifilm Wako Pure Chemical Corporation)] [LC:LC-20AD (Shimadzu), MS: amaZon speed (BRUKER)].

[2] = tested on: S1T cell (ATL cell line) tumor; test: Effect on HTLV-1 infected cell-transplanted mouse (ATL model); format: in vivo; conditions: day 28 after transplantation, 7.1 mg/kg per day intraperitoneally for 28 days, NSG mice with S1T cells
Description: In this example, the in vivo effect of Pro-IP6 on an HTLV-1 infected cell-transplanted mouse was checked. HTLV-1 (human T cell leukemia virus 1) mainly infects CD4-positive T lymphocyte, and when the infected cell cancerates, refractory malignant tumor, adult T-cell leukemia (ATL) is caused. In this example, S1T cell, that is, one of ATL cell lines, was used.
5-Week-old female NSG mice (NOD. Cg-Prkdc scid I12rg tm1Wjl/SzJ, Charles River Laboratories Japan, Inc.) were used. Five mice each in each of two cages, namely, ten mice in total, were raised with sterilized bedding (Pepar Clean: Japan SLC, Inc.) placed in a sterilized cage (Clea Japan, Inc.). […]
The control group was dosed with DMSO, and the IP6 administration group and the pro-IP6 administration group were intraperitoneally dosed respectively with IP6 in an amount of 7.1 mg/kg and pro-IP6 in an amount of 20 mg/kg. The mice were dosed continuously for 28 days after the day of the cell transplantation, and the weight and the tumor volume of each mouse were measured every day. The tumor volume was defined as (shorter diameter in mm)^2×(longer diameter in mm)×0.5, and the shorter diameter and the longer diameter were measured with a caliper. […] Subsequently, the tumor was totally removed, and the tumor volume and the tumor weight of each tumor were measured.

[3] = tested on: Jurkat cell (human T-lymphocyte cell); test: MTT assay, Jurkat cell; format: cell-based; conditions: Jurkat cell, 1 μM or 10 μM, 8 hours or 24 hours
Description: (§1) In this example, the cytotoxic effect of Pro-IP6 on four types of blood cancer cell lines and a cell derived from a healthy person was examined by MTT assay. […] It is possible to check viability of cultured cells by MTT assay. Cancer cell lines (1.74×10^4 cells/well, culture fluid: 200 μL) • MT-2 cell (HTLV transformed human T cell leukemia cell) • […] cell (human T-lymphoblastoid cell) • Jurkat cell (human T-lymphocyte cell) • K562 cell (chronic myelogenous leukemia cell) Each of the above-described types of cells was seeded in a 96-well plate, and was cultured for 8 hours for each of the various cancer cell lines and for 16 hours for PMBC. Thereafter, DMSO (1%, Fujifilm Wako Pure Chemical Corporation), an aqueous solution (1%) of IP6 (final concentration: 1 μM or 10 μM, Sigma Aldrich), or a DMSO solution (1%) of Pro-IP6 (final concentration: 1 μM or 10 μM) was added thereto, followed by culturing for 8 hours or 24 hours. An MTT reagent (Dojindo Laboratories, 1.1 mg/mL) was added in an amount of 50 μL per well, and the resultant was cultured for another 4 hours. The thus precipitated crystal was collected, a supernatant was removed, and 100 μL of DMSO was added thereto to completely dissolve. The resultant solution was measured for an absorbance (550 nm).

[4] = tested on: M8166 cell (human T-lymphoblastoid cell); test: MTT assay, M8166 cell; format: cell-based; conditions: M8166 cell, 1 μM or 10 μM, 8 hours or 24 hours
Description: as §1

[5] = tested on: MT-2 cell (HTLV transformed human T cell leukemia cell); test: MTT assay, MT-2 cell; format: cell-based; conditions: 1 μM or 10 μM, 8 hours or 24 hours
Description: as §1

[6] = tested on: K562 cell (chronic myelogenous leukemia cell); test: MTT assay, K562 cell; format: cell-based; conditions: 1 μM or 10 μM, 8 hours or 24 hours
Description: as §1

`O=P(O)(O)O[C@H]1[C@H](OP(=O)(O)O)[C@@H](OP(=O)(O)O)[C@H](OP(=O)(O)O)[C@@H](OP(=O)(O)O)[C@H]1OP(=O)(O)O` [IP6, myo-inostiol-1,2,3,4,5,6-hexaphosphate, reference compound] was tested, and the “incorporation into HeLa cell (IP6 methyl ester by LC/MS vs negative control)” value [1] was “substantially the same as that of the negative control”, the “tumor volume compared with that of the control group” value [2] was “not significantly different” and the cytotoxic effect [3] was “minimally exhibited the effect”. For the same compound, the cytotoxic effect [4] was “minimally exhibited the effect”, the cytotoxic effect [5] was “minimally exhibited the effect” and the cytotoxic effect [6] was “minimally exhibited the effect”.
